From patent publication US20010051646A1, “Method for the improvement of islet signaling in diabetes mellitus and for its prevention” (priority 2000, published 2001)

How the values were obtained:
Format in all cases: in vivo, rat
Male Zucker fa/fa rats [1] = assay: Repeated once-daily oral dosing: morning blood glucose and plasma insulin
Procedure: The parameters monitored were morning blood glucose and plasma insulin levels. In a day-night profile, glycemia and insulinaemia were monitored from day 16 to day 17. An OGTT was performed finally on day 21 to monitor blood glucose and plasma insulin kinetics to assess changes in glucose tolerance. Glibenclamide (DAB 1996; R011150/33372) was donated by Berlin-Chemie (Berlin, Germany). Male Zucker (fa/fa) rats of the body weight class of 300 g were purchased from Charles River (Sulzfeld, Germany).
Housing Conditions: Animals were kept single-housed under conventional conditions with controlled temperature (22±2° C.) on a 12/12 hours light/dark cycle (light on at 06:00 a.m.). Standard pellets (ssniff®, Soest, Germany) and tap water acidified with HCl were allowed ad libitum.
Catheterization of Carotid Artery: After one week of adaptation carotid catheters were implanted in the rats under general anesthesia (injection of 0.25 ml/kg i.p. Rompun® [2%], Bayer, Germany) and 0.5 ml/kg i.p. Velonarkon® (Arzneimittelwerk Dresden, Germany). The animals were allowed to recover for one week. The catheter was flushed with heparin-saline (100 IU/ml) three times per week.
Thereafter, the non-diabetic Wistar rats were treated orally once daily with RP (5 mg/kg b.w.) or TP (21.61 mg/kg b.w.) and the diabetic Zucker rats were treated orally once daily with RP (1 mg/kg b.w.) or TP (21.61 mg/kg b.w.) for 21 days at 05.00 p.m. (before regular food intake in the dark phase). The controls were given 1% cellulose solution orally (5 ml/kg). Blood samples were taken every morning at 07.30 a.m. from tail veins for measurement of blood glucose and plasma insulin. The last blood samples of this part of the program were taken at 07.30 a. m. on the 15th day to measure blood glucose and plasma insulin. The oral drug therapy was continued for one week. Recording the day-night profile under the above therapy blood glucose (Δt=3 h) and plasma insulin (Δt=3-6 h) were monitored from day 16 (at 05.00 p.m. beginning) to day 17 (at 02.00 p.m. end).
Blood glucose: Glucose levels were measured using the glucose oxidase procedure (Super G Glukosemeβgerät; Dr. Müller Gerätebau, Freital, Germany).
Plasma insulin: Insulin concentrations were assayed by the antibody RIA method (LINCO Research, Inc. St. Charles, Mo., USA).

Male Zucker fa/fa rats [2] = assay: Day-night profile of glycemia and insulinemia, day 16 to day 17 of treatment
Procedure: The parameters monitored were morning blood glucose and plasma insulin levels. […] An OGTT was performed finally on day 21 to monitor blood glucose and plasma insulin kinetics to assess changes in glucose tolerance. Glibenclamide (DAB 1996; R011150/33372) was donated by Berlin-Chemie (Berlin, Germany). Male Zucker (fa/fa) rats of the body weight class of 300 g were purchased from Charles River (Sulzfeld, Germany). […] Thereafter, the non-diabetic Wistar rats were treated orally once daily with RP (5 mg/kg b.w.) or TP (21.61 mg/kg b.w.) and the diabetic Zucker rats were treated orally once daily with RP (1 mg/kg b.w.) or TP (21.61 mg/kg b.w.) for 21 days at 05.00 p.m. (before regular food intake in the dark phase). The controls were given 1% cellulose solution orally (5 ml/kg). […] The oral drug therapy was continued for one week. […] Blood glucose: Glucose levels were measured using the glucose oxidase procedure (Super G Glukosemeβgerät; Dr. Müller Gerätebau, Freital, Germany). Plasma insulin: Insulin concentrations were assayed by the antibody RIA method (LINCO Research, Inc. St. Charles, Mo., USA).

Male Zucker fa/fa rats [3] = assay: OGTT after 21 days treatment: blood glucose and plasma insulin
Procedure: The parameters monitored were morning blood glucose and plasma insulin levels. […] An OGTT was performed finally on day 21 to monitor blood glucose and plasma insulin kinetics to assess changes in glucose tolerance. Glibenclamide (DAB 1996; R011150/33372) was donated by Berlin-Chemie (Berlin, Germany). Male Zucker (fa/fa) rats of the body weight class of 300 g were purchased from Charles River (Sulzfeld, Germany). Repeated Dosing: 30 male non-diabetic Wistar and 30 male diabetic Zucker rats were randomized to RP (Reference Product: glibenclamide)-, TP- (jest Product: […] Thereafter, the non-diabetic Wistar rats were treated orally once daily with RP (5 mg/kg b.w.) or TP (21.61 mg/kg b.w.) and the diabetic Zucker rats were treated orally once daily with RP (1 mg/kg b.w.) or TP (21.61 mg/kg b.w.) for 21 days at 05.00 p.m. (before regular food intake in the dark phase). The controls were given 1% cellulose solution orally (5 ml/kg). […] The oral drug therapy was continued for one week. […] OGTT: A final OGTT was performed on day 21 with blood sampling from the tail vein. […] The latter were immediately centrifuged and the plasma fractions were stored at −20 ° C. for insulin analysis. Blood glucose: Glucose levels were measured using the glucose oxidase procedure (Super G Glukosemeβgerät; Dr. Müller Gerätebau, Freital, Germany). Plasma insulin: Insulin concentrations were assayed by the antibody RIA method (LINCO Research, Inc. St. Charles, Mo., USA).

COc1ccc(Cl)cc1C(=O)NCCc1ccc(S(=O)(=O)NC(=O)NC2CCCCC2)cc1 [glibenclamide, reference compound]
Plasma insulin during 14 days in comparison to the control animals (Male Zucker fa/fa rats [1]; rat, in vivo): insulin increase to significantly higher concentrations than in control animals
Increase of morning blood glucose (Male Zucker fa/fa rats [1]; within two days of therapy): about 1.5 mmol/l
Mean blood glucose, day-night profile (Male Zucker fa/fa rats [2]; 02.00 p.m. next day, RP 1 mg/kg, TP 21.61 mg/kg orally once daily): 7.34 ± 0.77 mmol/L
Plasma insulin, day-night profile (Male Zucker fa/fa rats [2]; 02.00 p.m. the next day): 58.3 ± 7.3 ng/mL
Plasma insulin, day-night profile (Male Zucker fa/fa rats [2]; 05.00 a.m. (maximum)): 76.3 ± 8.6 ng/mL
Plasma insulin, day-night profile (Male Zucker fa/fa rats [2]; 05.00 p.m., RP 1 mg/kg, TP 21.61 mg/kg orally once daily): 50.0 ± 8.2 ng/mL
Plasma insulin, day-night profile (Male Zucker fa/fa rats [2]; 08.00 p.m.): 57.3 ± 8.2 ng/mL
Mean blood glucose, day-night profile (Male Zucker fa/fa rats [2]; 11.00 a.m., RP 1 mg/kg, TP 21.61 mg/kg orally once daily): 7.66 ± 1.22 mmol/L
Mean blood glucose, day-night profile (Male Zucker fa/fa rats [2]; 11.00 p.m., RP 1 mg/kg, TP 21.61 mg/kg orally once daily): 14.80 ± 1.46 mmol/L
Mean blood glucose, day-night profile (Male Zucker fa/fa rats [2]; day 16, 05.00 p.m. before drug application, RP 1 mg/kg, TP 21.61 mg/kg orally once daily): 7.96 ± 1.13 mmol/L
Increase of insulin output compared to the control (Male Zucker fa/fa rats [2]; obese Zucker rat, subchronic treatment): 27%
Glycemia at the last drug application (Male Zucker fa/fa rats [3]; 05.00 p.m., night before day 21): 8.81 ± 1.21 mmol/L
G-AUC in comparison to the placebo application (Male Zucker fa/fa rats [3]; day 21): increased
Blood glucose during OGTT (Male Zucker fa/fa rats [3]; day 21, 50 min): 16.33 ± 0.98 mmol/L
Blood glucose during OGTT (Male Zucker fa/fa rats [3]; day 21, 80 min): 16.24 ± 1.09 mmol/L
Blood glucose during OGTT (Male Zucker fa/fa rats [3]; day 21, 100 min): 15.13 ± 0.76 mmol/L
Blood glucose during OGTT (Male Zucker fa/fa rats [3]; day 21, 120 min): 14.81 ± 0.66 mmol/L
Glycemia after overnight fasting (basal, before OGTT) (Male Zucker fa/fa rats [3]; day 21, morning (07.30 a. m.)): 4.91 ± 0.37 mmol/L
Fasting plasma insulin at the beginning of the OGTT (Male Zucker fa/fa rats [3]; day 21, overnight fasting, listed as RP): ~12.5 ng/mL
Blood glucose increase after the glucose load (Male Zucker fa/fa rats [3]; day 21 OGTT): about 11 mmol
Plasma insulin after a glucose stimulus (Male Zucker fa/fa rats [3]; day 21 OGTT): remained mostly unchanged
Glucose area under the curve (G-AUC0-120 min) (Male Zucker fa/fa rats [3]; day 21 OGTT, CO-group 823±41): 1096 ± 76 mmol·min/L
